Measured values taken from patent EP4523686A1, “A SIGMA-1 RECEPTOR POSITIVE MODULATOR FOR ITS USE IN THE PREVENTION AND THE TREATMENT OF A PATHOLOGY” (priority 2023, dated 2025).
Several values for one entry are separate records, joined by “and”; a condition that tells them apart may be missing. Equal values may be shown once.

Assays:
SIG-1R = target: T1, SIG-1R (Homo sapiens, UniProt Q99720); assay: In vitro binding to SIG-1R ([3H](+)-pentazocine, Jurkat cell membranes, CEREP); conditions: for inhibition of the binding / displacement of SIG-1R radioligand (in words): no concentration stated
T1 construct: incubated with 15 nM of [^3H](+)-pentazocine in membranes preparations from Jurkat human leukemic T cells; host or cells: Jurkat human leukemic T cells (membrane preparation)
Protocol: (§1) The assay was performed by CEREP (Celle l'Evescault, France) (study 100062023). SIG-1R binding was performed according to Ganapathy et al. (1999). Increasing drug concentrations (100 nM to 30 µM) were incubated with 15 nM of [^3H](+)-pentazocine in membranes preparations from Jurkat human leukemic T cells. Samples were incubated during 120 min at 37°C and nonspecific binding level was determined using 10 µM of haloperidol. S2R binding was performed according to Ganapathy et al. (1999). Increasing drug concentrations (100 nM to 30 µM) were incubated with 25 nM of [^3H]ditolyl-guanidine in membranes preparations from Jurkat human leukemic T cells. Samples were incubated during 60 min at room temperature and nonspecific binding level was determined using 10 µM of haloperidol. Assays were performed in duplicates and results were expressed as % of specific binding level.

S2R = target: T2, S2R (Homo sapiens, UniProt Q5BJF2); assay: In vitro binding to S2R ([3H]ditolyl-guanidine, Jurkat cell membranes, CEREP); conditions: membranes from Jurkat human leukemic T cells, 25 nM radioligand; read-out: IC50 for [3H]DTG binding (S2R / SIG-2R affinity)
T2 construct: 25 nM of [^3H]ditolyl-guanidine in membranes preparations from Jurkat human leukemic T cells; host or cells: Jurkat human leukemic T cells (membrane preparation)
Protocol: as §1

5-HT1B receptor = target: T3, 5-HT1B receptor (Homo sapiens, UniProt P28222); assay: CEREP in vitro binding assay (pharmacological profiling)
T3 construct: CEREP

Wfs1^ΔExon8 mice [1] = assay: Step-through passive avoidance, Wolfram syndrome mouse model; type: in vivo; conditions: IP 20 min before training, retention 24 h after training
Excerpt: (§2) The apparatus is a two-compartments (15 × 20 × 15 cm high) box with one illuminated with white polyvinylchloride walls and the other darkened with black polyvinylchloride walls and a grid floor. A guillotine door separates each compartment. A 60 W lamp positioned 40 cm above the apparatus lights up the white compartment during the experiment. Scrambled foot shocks (0.3 mA for 3 s) could be delivered to the grid floor using a shock generator scrambler (Lafayette Instruments, Lafayette, USA). The guillotine door was initially closed during the training session. Each mouse was placed into the white compartment. After 5 s, the door was raised. When the mouse entered the darkened compartment and placed all its paws on the grid floor, the door is closed and the foot shocks delivered for 3 s. The step-through latency (STL-Tg), that is, the latency spent to enter the darkened compartment, and the number of vocalizations were recorded. The retention test was carried out 24 h after training. Each mouse was placed again into the white compartment. After 5 s, the door was raised. The step-through latency (STL-R) was recorded up to 300 s (Meunier et al., 2006, 2013; Villard et al., 2009, 2011). An exclusion criteria was STL-Tg and STL-R < 10 s. Animals showing these readouts are excluded from the calculations. Attrition is routinely < 5% in this test.

Wfs1^ΔExon8 mice [2] = assay: Active avoidance in the rectangular water-maze, Wolfram syndrome mouse model; type: in vivo
Protocol: (§3) Non-spatial long-term memory was also examined using the successive training, place-learning procedure in the rectangular water-maze (Maurice et al., 1995, 2018). The apparatus is a black Plexiglas rectangular pool (30 × 60 × 36 cm high), filled with water at a high of 25 cm. The water temperature was maintained at 23 ± 1°C. A transparent Plexiglas platform (5 × 8.5 × 0.5 cm) was fixed in the southeast corner of the pool, 1 cm below the water surface. On acquisition days 1 and 2, each mouse was placed at the middle of the west side of the pool, facing the wall, and the latency to find the platform was recorded up to 60 s. The mouse was allowed to remain on it for 20 s, and then removed from the pool into its home cage. […] Each animal was run in this manner for a total of 5 trials on day 1, and 3 trials on day 2. […] A short-term memory (STM) index was defined as the mean difference in swimming duration between trial n and trial n-1 for trials 2 to 5 and 7 to 8. The STM index was analysed vs. zero level (= no improvement). On day 4, 48 h after the last training session, animals were tested for retention. The platform was removed. Each mouse was again placed at the starting point and observed for 60 s. The latency to reach the original platform location and the time spent on the platform location was recorded.

[3] = test system: Aβ25-35-induced learning impairments in mice; assay: Spontaneous alternation in the Y-maze, Aβ25-35 model of Alzheimer's disease; type: in vivo; conditions: 0.3-3 mg/kg IP, all doses, single administration on day 1, test on day 8
Protocol: (§4) Amyloid-β[25-35] peptide (Aβ25-35) was from Eurogentec (Angers, France). It was solubilized in distilled water at 3 mg/ml and stored at -20°C until use. Before injection, the peptide was incubated at 37°C for 4 days, allowing oligomerization. Control injection was performed with vehicle solution (distilled water), and intracerebroventricularly (ICV) injections were done as described previously (Maurice et al., 1996, 2019).
The Y-maze is made of grey polyvinylchloride. Each arm is 40 cm long, 13 cm high, 3 cm wide at the bottom, 10 cm wide at the top, and converging at an equal angle. Each mouse was placed at the end of one arm and allowed to move freely through the maze during an 8 min session. The series of arm entries, including possible returns into the same arm, were checked visually. An alternation is defined as entries into all three arms on consecutive occasions. The number of maximum alternations is therefore the total number of arm entries minus two and the percentage of alternation was calculated as (actual alternations / maximum alternations) × 100 (Maurice et al., 1996; Meunier et al., 2006, 2013). Exclusion criteria are locomotion < 10 or percentage of alternation < 25% or > 90%. Animals showing these readouts are excluded from the calculations. Attrition is routinely < 5% in this test. […]

[4] = test system: Aβ25-35-induced learning impairments in mice; assay: Step-through passive avoidance, Aβ25-35 model of Alzheimer's disease; type: in vivo; conditions: 0.3-3 mg/kg IP, single administration on day 1
Protocol: as §4
as §2, with “When the mouse entered the darkened compartment and placed all its paws on the grid floor, the door is closed and the foot shocks delivered for 3 s.” left out, “The retention test was carried out 24 h after training. Each mouse was placed again into the white compartment. After 5 s, the door was raised.” left out, “An exclusion criteria was STL-Tg and STL-R < 10 s.” left out, “Attrition is routinely < 5% in this test.” left out

[5] = test system: Aβ25-35-induced learning impairments in mice; assay: Active avoidance in the rectangular water-maze, Aβ25-35 model of Alzheimer's disease; type: in vivo
Protocol: as §4, §3
SIG-1R acting drugs are potent neuroprotective drugs in several neurodegenerative disease indications. Moreover, Blarcamesine, the drug presently tested in a clinical phase 3 assay (NCT04314934) was identified in the pharmacological model of AD induced in mice by ICV administration of oligomerized Aβ25-35 peptide (Villard et al., 2011). […]

[6] = probe test without platform, no drug injection

T1 sequence (Q99720 whole entry): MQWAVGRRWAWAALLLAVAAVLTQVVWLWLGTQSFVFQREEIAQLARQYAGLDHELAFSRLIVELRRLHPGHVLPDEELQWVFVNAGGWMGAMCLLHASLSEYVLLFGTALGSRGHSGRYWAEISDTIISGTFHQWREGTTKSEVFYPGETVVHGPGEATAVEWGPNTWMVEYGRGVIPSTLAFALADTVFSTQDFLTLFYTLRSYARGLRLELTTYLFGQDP
T3 sequence (P28222 whole entry): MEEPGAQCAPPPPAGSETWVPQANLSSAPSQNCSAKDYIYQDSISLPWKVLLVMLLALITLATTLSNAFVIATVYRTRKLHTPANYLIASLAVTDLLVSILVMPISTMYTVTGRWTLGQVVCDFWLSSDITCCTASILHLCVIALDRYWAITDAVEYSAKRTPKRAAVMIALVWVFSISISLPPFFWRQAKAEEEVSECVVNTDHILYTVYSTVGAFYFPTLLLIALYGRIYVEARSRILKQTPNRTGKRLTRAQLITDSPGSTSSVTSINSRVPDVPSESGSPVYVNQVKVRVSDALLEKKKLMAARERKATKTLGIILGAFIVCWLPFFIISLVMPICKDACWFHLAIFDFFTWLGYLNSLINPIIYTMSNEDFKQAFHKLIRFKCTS
T2 sequence (Q5BJF2 whole entry): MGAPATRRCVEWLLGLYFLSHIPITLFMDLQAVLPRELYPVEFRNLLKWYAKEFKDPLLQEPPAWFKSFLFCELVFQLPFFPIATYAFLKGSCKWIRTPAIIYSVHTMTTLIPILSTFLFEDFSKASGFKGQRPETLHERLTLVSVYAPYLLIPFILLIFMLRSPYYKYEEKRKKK

COc1ccc(C(=O)OC2CC3CCC(C2)N3C)cc1OC (centres unmarked) [Convolamine, (8-methyl-8-azabicyclo[3.2.1]octan-3-yl) 3,4-dimethoxybenzoate]
IC50 (SIG-1R): > 30 µM | inhibition of [3H](+)-pentazocine binding to SIG-1R (in words) (SIG-1R; at concentrations < 10 µM): failed to inhibit | inhibition of the binding / displacement of SIG-1R radioligand (in words) (SIG-1R): did not inhibit | inhibition of the binding / displacement of SIG-1R radioligand (in words) (SIG-1R; listed as convolamine): does not displace | IC50 (S2R): 13 µM and ~13 µM | stimulation of specific binding (5-HT1B receptor): 30-40% | inhibition at 0.1 µM (5-HT1B receptor; 0.1 µM, duplicates, negative = stimulation of binding): -33% | inhibition at 1 µM (5-HT1B receptor; 1 µM, duplicates, negative = stimulation of binding): -38.6% | step-through latency deficit during retention (in words) (Wfs1^ΔExon8 mice [1]): attenuated the deficit | mild deficit of STM index (in words) (Wfs1^ΔExon8 mice [2]; IP 20 min before training sessions): not observed | latency to reach the platform location in the probe test (in words) (Wfs1^ΔExon8 mice [2]; [6]): attenuated these differences | number of platform location crossings in the probe test (in words) (Wfs1^ΔExon8 mice [2]; [6]): attenuated these differences | Aβ25-35-induced deficit in spontaneous alternation (in words) [3]: significantly attenuated | Aβ25-35-induced deficit in the passive avoidance test (in words) [4]: not effective | STM (short-term memory index) in Aβ25-35-treated mice (in words) ([5]; at 1 mg/kg): significantly increased | Aβ25-35-induced decrease in number of platform location crossings (in words) ([5]; at 1 mg/kg IP): significantly attenuated | Aβ25-35-induced increase in latency in the retention session (in words) ([5]; at 1 mg/kg IP): significantly attenuated
